Assay results reported in PMC3558932 (Chemistry & biology, 2013).

Experiments:
Rv0831c = Rv0831c (Mycobacterium tuberculosis, UniProt O53842)
Rv0036c = Rv0036c (Mycobacterium tuberculosis, UniProt P9WM91)
Rv0282 = Rv0282 (Mycobacterium tuberculosis, UniProt P9WPI3); details: 20 uM probe, lysate in PBS, 37 °C, 1 h; covalent
Rv0941c = Rv0941c (Mycobacterium tuberculosis, UniProt P71568); details: 20 uM probe, lysate in PBS, 37 °C, 1 h; covalent

Rv0036c, sequence (P9WM91 whole entry): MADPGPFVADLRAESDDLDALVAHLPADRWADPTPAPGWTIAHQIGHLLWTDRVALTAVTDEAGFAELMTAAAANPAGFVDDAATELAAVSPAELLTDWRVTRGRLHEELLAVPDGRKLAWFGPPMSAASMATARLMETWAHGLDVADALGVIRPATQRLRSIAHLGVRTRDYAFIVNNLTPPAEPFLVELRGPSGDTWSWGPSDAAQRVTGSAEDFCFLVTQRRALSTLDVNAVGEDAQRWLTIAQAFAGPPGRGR
Rv0282, sequence (P9WPI3 whole entry, looked up): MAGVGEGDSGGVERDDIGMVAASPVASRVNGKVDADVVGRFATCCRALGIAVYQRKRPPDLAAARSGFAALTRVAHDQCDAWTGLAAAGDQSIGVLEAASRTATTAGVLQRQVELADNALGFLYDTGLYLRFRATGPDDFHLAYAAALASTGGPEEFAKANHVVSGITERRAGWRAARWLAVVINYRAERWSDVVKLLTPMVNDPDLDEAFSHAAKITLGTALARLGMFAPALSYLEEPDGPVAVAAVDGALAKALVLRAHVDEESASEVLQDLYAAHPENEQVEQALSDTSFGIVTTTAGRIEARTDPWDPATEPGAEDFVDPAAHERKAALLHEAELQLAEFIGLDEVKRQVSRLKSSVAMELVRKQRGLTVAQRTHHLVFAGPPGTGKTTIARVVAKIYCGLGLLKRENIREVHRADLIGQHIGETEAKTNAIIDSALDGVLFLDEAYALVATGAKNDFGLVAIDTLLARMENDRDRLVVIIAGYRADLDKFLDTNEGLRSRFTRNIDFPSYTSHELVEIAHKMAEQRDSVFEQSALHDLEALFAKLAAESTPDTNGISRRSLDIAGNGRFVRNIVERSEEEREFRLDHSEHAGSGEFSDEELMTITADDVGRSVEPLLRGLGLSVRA

Compound: Nc1ncnc2c1ncn2[C@@H]1O[C@H](COP(=O)(O)OP(=O)(O)OP(=O)(O)O)[C@@H](O)[C@H]1O [ATP]
- competition with ATP-ABP labelling, gel fluorescence (Rv0831c): ATP and ATPγS competed with probe binding
- competition with ATP-ABP labelling, gel fluorescence (Rv0036c): ATP and ATPγS competed with probe binding

Compound: Nc1ncnc2c1ncn2[C@@H]1O[C@H](COP(=O)(O)OP(=O)(O)OP(O)(O)=S)[C@@H](O)[C@H]1O [ATPγS]
- competition with ATP-ABP labelling, gel fluorescence (Rv0831c): ATP and ATPγS competed with probe binding
- competition with ATP-ABP labelling, gel fluorescence (Rv0036c): ATP and ATPγS competed with probe binding

Compound: ATP-ABP
- fold enrichment over negative control (Rv0282): 4 fold
- fold enrichment over control (Rv0941c): 15 fold
